For data set [1] the following is noted: cited from earlier work; for pKa2: α-ammonium ion; for pKa1: α-carboxyl group; for pKa3: side chain group.
Data set [2] can be described thus: Viscosity of defibrotide formulations with various buffers and excipients. The data set is classed as physicochemical. As to the method: (§1) It is important for pharmaceutical preparations for oral or parenteral administration to be of low-viscosity and/or isotonic. In order to identify buffers or excipients that may lower the viscosity and/or osmolality of defibrotide formulations, a wide-panel screening of various buffers and excipients (including GRAS excipients) was performed using a 200 mg/mL defibrotide formulation.

Data set [3] can be described thus: Osmolality of defibrotide formulations with various buffers and excipients. The data set is classed as physicochemical. As for the experimental part: as §1

As to `NC(=O)C[C@H](N)C(=O)O` [Asparagine], in data set [1], the pI is on record as 5.41, the pKa2 was 8.80 and the pKa1 is reported as 2.02.

Consider `CC[C@H](C)[C@H](N)C(=O)O` [Isoleucine], for which, in data set [1], the pI is given as 6.02, the pKa2 is given as 9.60 and the pKa1 is 2.36.

`CSCC[C@H](N)C(=O)O` [Methionine]: in data set [1], the pI is 5.74, the pKa2 was 9.21 and the pKa1 is 2.28.

Consider `N[C@@H](CS)C(=O)O` [Cysteine], for which, in data set [1], the pI is given as 5.07, the pKa2 was 8.18 and the pKa1 was 1.96.

Turning to `N[C@@H](Cc1ccc(O)cc1)C(=O)O` [Tyrosine], in data set [1], the pI was 5.66.

As to `N=C(N)NCCC[C@H](N)C(=O)O` [Arginine], in data set [1], the pI is reported as 10.76, the pKa3 was 12.48, the pKa2 was 9.04 and the pKa1 is on record as 2.17.

As to `NCCCC[C@H](N)C(=O)O` [Lysine], in data set [1], the pI is reported as 9.74, the pKa3 is on record as 10.53, the pKa2 is given as 8.95 and the pKa1 is listed as 2.18.

For the compound `N[C@@H](CO)C(=O)O` [Serine], in data set [1], the pI is 5.68 and the pKa2 is reported as 9.15.

Take `N[C@@H](Cc1c[nH]c2ccccc12)C(=O)O` [Tryptophan]: in data set [1], the pKa2 was 9.39 and the pKa1 was 2.83.

For the compound `O=C(O)[C@@H]1CCCN1` [Proline], in data set [1], the pI is on record as 6.30, the pKa2 is reported as 10.6 and the pKa1 is 1.99.

In the case of `C[C@H](N)C(=O)O` [Alanine], in data set [1], the pI was 6.00, the pKa2 is 9.69 and the pKa1 is 2.34.

`N[C@@H](Cc1ccccc1)C(=O)O` [Phenylalanine]: in data set [1], the pI is listed as 5.48, the pKa2 is 9.13 and the pKa1 was 1.83.

For the compound `C[C@@H](O)[C@H](N)C(=O)O` [Threonine], in data set [1], the pI is 5.60, the pKa2 is on record as 9.10 and the pKa1 was 2.09.

For `CC(C)[C@H](N)C(=O)O` [Valine], in data set [1], the pI is on record as 5.96, the pKa2 is on record as 9.62 and the pKa1 was 2.32.

Consider Defibrotide, for which the “Effect of increasing the defibrotide concentration in the formulation on viscosity” value in data set [2] is “increase”. In addition, in data set [3], the “Effect of increasing the defibrotide concentration in the formulation on osmolality” value is “increase”.

Take `O=S(=O)(O)CCN1CCN(CCO)CC1` [HEPES buffer]: the pKa value in data set [1] (buffer or excipient) is 7.564.

The values above are taken from patent US20220023533A1, “SUBCUTANEOUS DELIVERY OF HIGH CONCENTRATION FORMULATIONS” (JAZZ PHRMACETICALS IRELAND LIMITED, priority 2018, published 2022).
